Results on 48 compounds are retold here after patent publication US20260234139A1, “PGDH INHIBITORS AND METHODS OF MAKING AND USING” (Epirium Bio Inc., priority 2023, published 2026).

In assay [1] the test system is A549. The experiment in a line: A549 EC50 (cell assay, method not described). The class given is cell-based. As to conditions: Homo sapiens, A549, A549.
The target of assay [2] is T1, 15-PGDH/HPGD (Homo sapiens, UniProt P15428).
T1 construct: purchased R&D System 5660-DH
T1 sequence (P15428 1-266): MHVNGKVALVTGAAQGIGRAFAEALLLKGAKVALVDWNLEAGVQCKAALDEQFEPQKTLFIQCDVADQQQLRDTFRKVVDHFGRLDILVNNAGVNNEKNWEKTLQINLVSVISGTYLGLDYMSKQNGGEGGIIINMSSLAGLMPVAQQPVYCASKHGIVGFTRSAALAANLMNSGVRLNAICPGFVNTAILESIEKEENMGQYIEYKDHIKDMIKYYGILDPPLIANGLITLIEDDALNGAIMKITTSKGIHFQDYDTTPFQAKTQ
The experiment in a line: hPGDH inhibitor screening biochemical assay. As to conditions: 10 nM enzyme, 15 μM Prostaglandin E2, 0.25 mM NAD, fluorescence ex/em 340/485 nm. Put shortly: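 Recombinant 15-PGDH (10 nM) preincubated with compound 10 min at 37° C, then 15 μM PGE2 and 0.25 mM NAD⁺ added for 10 min at room temperature in 50 mM Tris-HCl pH 7.5, 0.01% Tween 20. NADH fluorescence at ex/em 340/485 nm; 10-point dose response.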

The structures appear in SMILES notation.

As to `O=C(NC[C@H](O)c1cnc2c(cnn2-c2cccc(-c3nnc[nH]3)c2)c1)C1CC1` [Compound 39A], the EC50 in assay [1] was ≥ 1000 nM. In addition, in assay [2], the half-maximal inhibitory concentration (IC50) is ≥ 1000 nM.
As for `O=C(O)CCc1ccc(-n2ncc3cc([C@@H](O)COC4CCCC4)cnc32)cc1F` [Compound 88A], the EC50 in assay [1] is ≥ 1000 nM. For the same compound, the half-inhibitory concentration (IC50) in assay [2] is 100 to 1000 nM.
Taken in the same sequence, the figures for `CCOC(C)(C)[C@@H](O)c1cnc2c(cnn2-c2ccc(C(=O)O)cc2)c1` [Compound 53B] were < 100 nM and < 100 nM.
Taken in the same sequence, the figures for `COC(C)(C)C[C@H](O)c1cnc2c(cnn2-c2cccc(-c3nnc[nH]3)c2)c1` [Compound 54B] were 100 to 1000 nM and < 100 nM.
As to `Cc1nn(-c2ccc(C(=O)O)cc2)c2ncc([C@H](O)COC3CCC3)cc12` [Compound 109B], the EC50 in assay [1] was < 100 nM. Also, the concentration for half-maximal inhibition (IC50) in assay [2] was < 100 nM.
For `C[C@H]1C[C@H](OC[C@H](O)c2cnc3c(cnn3-c3ccc(C(=O)O)cc3)c2)C1` [Compound 127C], in assay [1], the EC50 was ≥ 1000 nM. In assay [2], this compound returned a concentration for half-maximal inhibition (IC50) of 100 to 1000 nM.
Taken in the same sequence, the figures for `CC(C)(O)[C@@H](O)c1cnc2c(cnn2-c2cccc(-c3nnc[nH]3)c2)c1` [Compound 33B, (S)-1-(1-(3-(4H-1,2,4-triazol-3-yl)phenyl)-1H-pyrazolo[3,4-b]pyridin-5-yl)-2-methylpropane-1,2-diol] were ≥ 1000 nM and 100 to 1000 nM.
Taken in the same sequence, the figures for `CC(C)(O)C[C@@H](O)c1cnc2c(cnn2-c2cccc(-c3nnc[nH]3)c2)c1` [Compound 43A] were ≥ 1000 nM and < 100 nM.
`CC(C)OCC(O)c1cnc2c(cnn2-c2ccc(CCC(=O)O)c(F)c2)c1` (stereo in doubt) [Compound 70A, (R)-3-(2-fluoro-4-(5-(1-hydroxy-2-isopropoxyethyl)-1H-pyrazolo[3,4-b]pyridin-1-yl)phenyl) propanoic acid]: the 50% effective concentration (EC50) in assay [1] was < 100 nM. For the same compound, the 50% inhibitory concentration (IC50) in assay [2] was < 100 nM.
In turn, `O[C@@H](COC1CC1)c1cnc2c(cnn2-c2cccc(-c3nnc[nH]3)c2)c1` [Compound 37A] had a concentration for a half-maximal effect (EC50) in assay [1] of 100 to 1000 nM. In addition, in assay [2], the concentration for half-maximal inhibition (IC50) was < 100 nM.
As to `COCC[C@@H](O)c1cnc2c(cnn2-c2cccc(-c3nnc[nH]3)c2)c1` [Compound 36A], in assay [1], the EC50 is < 100 nM. The half-maximal inhibitory concentration (IC50) in assay [2] was < 100 nM.
Regarding `O[C@H](COC1CCC1)c1cnc2c(cnn2-c2cncc(-c3nnc[nH]3)c2)c1` [Compound 117B], the EC50 in assay [1] is < 100 nM. Moreover, the half-maximal inhibitory concentration (IC50) in assay [2] was < 100 nM.
As for `CC(C)NC[C@@H](O)c1cnc2c(ccn2-c2cccc(-c3nnc[nH]3)c2)n1` [Compound 22B], the EC50 in assay [1] is ≥ 1000 nM. This compound also showed an IC50 in assay [2] of 100 to 1000 nM.
In the same order, the values of `O[C@H](c1cnc2c(cnn2-c2cccc(-c3nnc[nH]3)c2)c1)[C@@H]1CCOC1` [Compound 68D] are 100 to 1000 nM and < 100 nM.
In the same order, the values of `O[C@@H](c1cnc2c(cnn2-c2cccc(-c3nnc[nH]3)c2)c1)[C@H]1CCOC1` [Compound 68C] are < 100 nM and < 100 nM.
With `COC1([C@H](O)c2cnc3c(cnn3-c3cccc(-c4nnc[nH]4)c3)c2)CC1` [Compound 59B], in assay [1], the EC50 is ≥ 1000 nM. The half-maximal inhibitory concentration (IC50) in assay [2] fell in the range of 100 to 1000 nM.
In the same order, the values of `O=C(O)c1ccc(-n2ncc3cc([C@@H](O)COCC4(C(F)(F)F)CC4)cnc32)cc1` [Compound 113A] are ≥ 1000 nM and 100 to 1000 nM.
In the same order, the values of `O[C@H](c1cnc2c(cnn2-c2cccc(-c3nnc[nH]3)c2)c1)C1CCOCC1` [Compound 52A] are 100 to 1000 nM and < 100 nM.
As to `CN(C)C(=O)c1ccc(-n2ncc3cc([C@H](O)COC4CCC4)cnc32)cc1` [Compound 80A], the concentration for a half-maximal effect (EC50) in assay [1] was < 100 nM. The concentration for half-maximal inhibition (IC50) in assay [2] is < 100 nM.
With `CC(C)OC[C@@H](O)c1cnc2c(cnn2-c2ccc(OCC(=O)O)c(F)c2)c1` [Compound 74A], the EC50 in assay [1] fell in the range of 100 to 1000 nM. Besides, the IC50 in assay [2] is < 100 nM.
Taken in the same sequence, the figures for `CC(C)(OCC(F)F)[C@H](O)c1cnc2c(cnn2-c2cccc(-c3nnc[nH]3)c2)c1` [Compound 61B] were 100 to 1000 nM and ≥ 1000 nM.
Take `CNC(=O)c1ccc(-n2ncc3cc([C@H](O)COC(C)C)cnc32)cc1` [Compound 67A]: the concentration for a half-maximal effect (EC50) in assay [1] was < 100 nM. Moreover, the 50% inhibitory concentration (IC50) in assay [2] was < 100 nM.
Regarding `O=C(O)c1ccc(-n2ncc3cc([C@H](O)COCC4(C(F)(F)F)CC4)cnc32)cc1` [Compound 113B], the EC50 in assay [1] lay within 100 to 1000 nM. The IC50 in assay [2] was < 100 nM.
`CC(C)OCC(O)c1cnc2c(cnn2-c2ccc(CCC(=O)O)c(F)c2)c1` (stereo in doubt) [Compound 70B, (S)-3-(2-fluoro-4-(5-(1-hydroxy-2-isopropoxyethyl)-1H-pyrazolo[3,4-b]pyridin-1-yl)phenyl) propanoic acid] registered an EC50 in assay [1] of 100 to 1000 nM. Also, the half-maximal inhibitory concentration (IC50) in assay [2] was < 100 nM.
Taken in the same sequence, the figures for `COC(C)(C)CC[C@H](O)c1cnc2c(cnn2-c2cccc(-c3nnc[nH]3)c2)c1` [Compound 55A] were 100 to 1000 nM and < 100 nM.
As for `O=C(O)CCc1ccc(-n2ncc3cc([C@@H](O)COC4CC4)cnc32)cc1F` [Compound 86A], the EC50 in assay [1] was < 100 nM. Further, the IC50 in assay [2] is < 100 nM.
In the case of `CC(C)NC[C@H](O)c1cnc2c(cnn2-c2cccc(-c3nnc[nH]3)c2)c1` [Compound 27A, (R)-1-(1-(3-(4H-1,2,4-triazol-3-yl)phenyl)-1H-pyrazolo[3,4-b]pyridin-5-yl)-2-(isopropylamino) ethan-1-ol], in assay [1], the EC50 was ≥ 1000 nM. In addition, the IC50 in assay [2] was ≥ 1000 nM.
With `O=C(O)c1ccc(-n2ccc3nc([C@@H](O)C4CC(F)(F)C4)cnc32)cc1` [Compound 46B], the half-maximal effective concentration (EC50) in assay [1] lay within 100 to 1000 nM. Further, the IC50 in assay [2] was < 100 nM.
`O=C(O)[C@@H]1CCN(c2ccc(-n3ncc4cc([C@H](O)COC5CCC5)cnc43)cc2)C1` [Compound 87B] registered a half-maximal effective concentration (EC50) in assay [1] of 100 to 1000 nM. In addition, in assay [2], the concentration for half-maximal inhibition (IC50) lay within 100 to 1000 nM.
`CC(C)OCC[C@H](O)c1cnc2c(ccn2-c2cccc(-c3nnc[nH]3)c2)c1` [Compound 41A] displayed an EC50 in assay [1] of 100 to 1000 nM. Also, the 50% inhibitory concentration (IC50) in assay [2] is < 100 nM.
In the same order, the values of `COC1([C@@H](O)c2cnc3c(cnn3-c3cccc(-c4nnc[nH]4)c3)c2)CCC1` [Compound 65A] are 100 to 1000 nM and 100 to 1000 nM.
Taken in the same sequence, the figures for `O=C(O)c1ccc(-n2ncc3cc([C@@H](O)COC4CCC4)cnc32)cc1F` [Compound 94A] were < 100 nM and < 100 nM.
In the same order, the values of `O=C(O)c1ccc(-n2ncc3cc(C(O)C4CC(F)(F)C4)cnc32)cc1` (stereo in doubt) [Compound 45B, (S)-4-(5-((3,3-difluorocyclobutyl)(hydroxy)methyl)-1H-pyrazolo[3,4-b]pyridin-1-yl)benzoic acid] are < 100 nM and < 100 nM.
For the compound `CC1(OC[C@H](O)c2cnc3c(cnn3-c3ccc(C(=O)O)cc3)c2)CCC1` [Compound 90A], the half-maximal effective concentration (EC50) in assay [1] lay in the range of 100 to 1000 nM. The half-maximal inhibitory concentration (IC50) in assay [2] was < 100 nM.
Taken in the same sequence, the figures for `CC(C)(C)OC[C@H](O)c1cnc2c(cnn2-c2cccc(-c3nnc[nH]3)c2)c1` [Compound 32A] were ≥ 1000 nM and < 100 nM.
Taken in the same sequence, the figures for `O[C@@H](c1cnc2c(cnn2-c2cccc(-c3nnc[nH]3)c2)c1)C1COC1` [Compound 28A] were < 100 nM and < 100 nM.
Taken in the same sequence, the figures for `O[C@H](c1cnc2c(ccn2-c2cc(Cl)cc(-c3nnc[nH]3)c2)c1)C1CCC(F)(F)CC1` [Compound 12B] were < 100 nM and < 100 nM.
For `CCCC(F)(F)[C@@H](O)c1cnc2c(ccn2-c2cccc(-c3nnc[nH]3)c2)n1` [Compound 35A], the EC50 in assay [1] was < 100 nM. The IC50 in assay [2] is < 100 nM.
On to `O[C@@H](c1cnc2c(ccn2-c2cc(Cl)cc(-c3nnc[nH]3)c2)c1)C1CCC(F)(F)CC1` [Compound 12A], for which the EC50 in assay [1] is ≥ 1000 nM. Besides, the IC50 in assay [2] is < 100 nM.
In the same order, the values of `CC(C)OC[C@@H](O)c1cnc2c(cnn2-c2ccc3nc(N4CCOCC4)nn3c2)c1` [Compound 60A] are < 100 nM and < 100 nM.
Taken in the same sequence, the figures for `O[C@@H](c1cnc2c(cnn2-c2ccc3nc(N4CCOCC4)nn3c2)c1)C1COC1` [Compound 64B] were < 100 nM and < 100 nM.
Consider `C[C@@H](OC1CCC1)[C@H](O)c1cnc2c(cnn2-c2ccc(C(=O)O)cc2)c1` [Compound 108A], for which, in assay [1], the half-maximal effective concentration (EC50) was < 100 nM. Also, the 50% inhibitory concentration (IC50) in assay [2] is < 100 nM.
Consider `CCOC1([C@@H](O)c2cnc3c(cnn3-c3cccc(-c4nnc[nH]4)c3)c2)CCC1` [Compound 83B], for which the half-maximal effective concentration (EC50) in assay [1] was ≥ 1000 nM. In assay [2], this compound yielded a 50% inhibitory concentration (IC50) of 100 to 1000 nM.
As to `CC(C)NC[C@H](O)c1cnc2c(ccn2-c2cccc(-c3nnc[nH]3)c2)n1` [Compound 22A], the half-maximal effective concentration (EC50) in assay [1] is ≥ 1000 nM. In assay [2], the IC50 was ≥ 1000 nM.
For the compound `O[C@@H](c1cnc2c(ccn2-c2cccc(-c3nnc[nH]3)c2)c1)C1CCC1` [Compound 10B], the concentration giving a half-maximal response (EC50) in assay [1] is < 100 nM. In addition, in assay [2], the half-inhibitory concentration (IC50) is < 100 nM.
As to `O=C(O)c1ccc(-n2ncc3cc([C@H](O)COC4CCC4)cnc32)cc1` [Compound 42B], in assay [1], the concentration giving a half-maximal response (EC50) was < 100 nM. The IC50 in assay [2] was < 100 nM.
Regarding `CN(C)C[C@@H](O)c1cnc2c(cnn2-c2cccc(-c3nnc[nH]3)c2)c1` [Compound 25B], in assay [1], the concentration for a half-maximal effect (EC50) was ≥ 1000 nM. In assay [2], the IC50 lay within 100 to 1000 nM.
In the same order, the values of `CC(C)CC[C@@H](O)c1cnc2c(ccn2-c2ccc(C(=O)O)cc2)n1` [Compound 40B] are < 100 nM and < 100 nM.
